Assay results taken from the NIST ThermoML archive (doi:10.1021/je8009418).

Details: Liquid; for speed of sound: Pulse-echo method; for mass density: Vibrating tube method

CCC(C)(C)O [2-methylbutan-2-ol]
Details	mass density [kg/m3]	speed of sound [m/s]
292.86 K, 15200 kPa	–	1290.8
292.86 K, 30390 kPa	–	1369.7
292.86 K, 45590 kPa	–	1440.9
292.86 K, 60790 kPa	–	1506
292.86 K, 75990 kPa	–	1566.1
292.86 K, 91180 kPa	–	1623.1
292.86 K, 101320 kPa	–	1658.5
292.9 K, 100 kPa	–	1196.7
293.15 K, 101.33 kPa	808.891	–
298.15 K, 101.33 kPa	804.3	1177.8
298.15 K, 15200 kPa	–	1274.2
298.15 K, 30390 kPa	–	1354.4
298.15 K, 45590 kPa	–	1426.3
298.15 K, 60790 kPa	–	1491.5
298.15 K, 75990 kPa	–	1551.9
298.15 K, 91180 kPa	–	1608.7
298.15 K, 101320 kPa	–	1644.4
298.17 K, 100 kPa	–	1177.8
303.13 K, 30390 kPa	–	1339.7
303.13 K, 45590 kPa	–	1412.3
303.13 K, 91180 kPa	–	1595.6
303.13 K, 101320 kPa	–	1631.4
303.14 K, 15200 kPa	–	1258.5
303.14 K, 60790 kPa	–	1478.1
303.14 K, 75990 kPa	–	1538.6
303.15 K, 100 kPa	–	1159.8
303.16 K, 101.33 kPa	799.66	–
308.12 K, 100 kPa	–	1141.9
308.12 K, 15200 kPa	–	1242.6
308.12 K, 30390 kPa	–	1324.9
308.12 K, 45590 kPa	–	1398
308.12 K, 60790 kPa	–	1464.7
308.12 K, 75990 kPa	–	1525.6
308.12 K, 91180 kPa	–	1582.6
308.12 K, 101320 kPa	–	1619
308.16 K, 101.33 kPa	794.954	–
313.1 K, 100 kPa	–	1124
313.1 K, 45590 kPa	–	1384.1
313.1 K, 60790 kPa	–	1451.2
313.1 K, 75990 kPa	–	1512.8
313.1 K, 91180 kPa	–	1569.9
313.11 K, 15200 kPa	–	1226.6
313.11 K, 30390 kPa	–	1310.1
313.11 K, 101320 kPa	–	1606.2
313.15 K, 101.33 kPa	790.176	–
318.15 K, 101.33 kPa	785.312	–
318.18 K, 15200 kPa	–	1210.4
318.18 K, 60790 kPa	–	1437.9
318.18 K, 75990 kPa	–	1499.8
318.18 K, 101320 kPa	–	1593.9
318.19 K, 30390 kPa	–	1295.2
318.19 K, 45590 kPa	–	1370.1
318.19 K, 91180 kPa	–	1557.2
318.29 K, 100 kPa	–	1105.3

OC1CCCC1 [cyclopentanol]
Details	mass density [kg/m3]	speed of sound [m/s]
292.85 K, 15200 kPa	–	1519.5
292.85 K, 30390 kPa	–	1576.3
292.85 K, 45590 kPa	–	1629.1
292.85 K, 60790 kPa	–	1677.8
292.85 K, 75990 kPa	–	1723.9
292.85 K, 91180 kPa	–	1767.2
292.85 K, 101320 kPa	–	1795
292.86 K, 100 kPa	–	1454.4
293.15 K, 101.33 kPa	946.792	–
298.14 K, 15200 kPa	–	1500.4
298.14 K, 30390 kPa	–	1557.8
298.14 K, 45590 kPa	–	1611.5
298.14 K, 60790 kPa	–	1661
298.14 K, 75990 kPa	–	1707.2
298.14 K, 91180 kPa	–	1751.2
298.14 K, 101320 kPa	–	1779.3
298.15 K, 101.33 kPa	942.856	1435.1
298.17 K, 100 kPa	–	1435
303.12 K, 15200 kPa	–	1482.2
303.12 K, 30390 kPa	–	1540.4
303.12 K, 45590 kPa	–	1595.1
303.12 K, 60790 kPa	–	1645.6
303.12 K, 75990 kPa	–	1692.6
303.12 K, 91180 kPa	–	1737.2
303.12 K, 101320 kPa	–	1765.5
303.15 K, 100 kPa	–	1416.9
303.16 K, 101.33 kPa	938.874	–
308.11 K, 15200 kPa	–	1464.8
308.11 K, 30390 kPa	–	1524.5
308.11 K, 45590 kPa	–	1579.4
308.11 K, 60790 kPa	–	1630.6
308.11 K, 75990 kPa	–	1678
308.11 K, 101320 kPa	–	1751.6
308.12 K, 91180 kPa	–	1723
308.13 K, 100 kPa	–	1398.7
308.15 K, 101.33 kPa	934.843	–
313.09 K, 15200 kPa	–	1447.6
313.09 K, 30390 kPa	–	1508.3
313.09 K, 45590 kPa	–	1564
313.09 K, 60790 kPa	–	1616.1
313.09 K, 75990 kPa	–	1664.1
313.09 K, 91180 kPa	–	1709.5
313.09 K, 101320 kPa	–	1738.6
313.12 K, 100 kPa	–	1380.6
313.15 K, 101.33 kPa	930.754	–
318.15 K, 101.33 kPa	926.613	–
318.19 K, 15200 kPa	–	1430.8
318.19 K, 45590 kPa	–	1548.6
318.19 K, 60790 kPa	–	1601.4
318.19 K, 75990 kPa	–	1650.3
318.19 K, 101320 kPa	–	1725.3
318.2 K, 30390 kPa	–	1492.4
318.2 K, 91180 kPa	–	1695.8
318.29 K, 100 kPa	–	1361.8

CCCCCO [pentan-1-ol]
Details	mass density [kg/m3]	speed of sound [m/s]
292.81 K, 100 kPa	–	1293.9
292.88 K, 76010 kPa	–	1611.2
292.88 K, 91210 kPa	–	1660
292.88 K, 101330 kPa	–	1691.4
292.91 K, 45590 kPa	–	1501.6
292.91 K, 60810 kPa	–	1558.3
292.95 K, 15200 kPa	–	1371.5
292.96 K, 30400 kPa	–	1439.7
293.15 K, 101.33 kPa	814.5	–
297.93 K, 30400 kPa	–	1424.8
297.93 K, 45600 kPa	–	1487.1
297.93 K, 60800 kPa	–	1544.3
297.93 K, 75990 kPa	–	1597.6
297.93 K, 91190 kPa	–	1647.3
297.93 K, 101340 kPa	–	1678.7
297.94 K, 15200 kPa	–	1355.5
298.15 K, 101.33 kPa	810.84	1275.2
298.18 K, 100 kPa	–	1275.1
303.05 K, 45600 kPa	–	1472.8
303.06 K, 15200 kPa	–	1339.3
303.06 K, 30410 kPa	–	1409.7
303.06 K, 91180 kPa	–	1634.6
303.06 K, 101330 kPa	–	1666.3
303.1 K, 60790 kPa	–	1530.6
303.1 K, 76000 kPa	–	1584.1
303.15 K, 100 kPa	–	1258
303.15 K, 101.33 kPa	807.155	–
308.04 K, 45600 kPa	–	1459
308.05 K, 76000 kPa	–	1571.6
308.06 K, 60800 kPa	–	1517.5
308.06 K, 91210 kPa	–	1622.5
308.06 K, 101330 kPa	–	1654.2
308.08 K, 15200 kPa	–	1323.5
308.08 K, 30400 kPa	–	1394.8
308.13 K, 100 kPa	–	1240.9
308.15 K, 101.33 kPa	803.442	–
313.02 K, 101340 kPa	–	1642.9
313.03 K, 30400 kPa	–	1380.7
313.03 K, 60790 kPa	–	1504.8
313.03 K, 75990 kPa	–	1559.2
313.03 K, 91190 kPa	–	1610.7
313.04 K, 15210 kPa	–	1308.5
313.05 K, 45600 kPa	–	1445.5
313.11 K, 100 kPa	–	1224.1
313.15 K, 101.33 kPa	799.705	–
318.15 K, 101.33 kPa	795.912	–
318.49 K, 76000 kPa	–	1546.4
318.49 K, 91200 kPa	–	1598.1
318.5 K, 60800 kPa	–	1491.2
318.51 K, 45590 kPa	–	1431.3
318.51 K, 101330 kPa	–	1630.8
318.52 K, 15200 kPa	–	1292
318.52 K, 30400 kPa	–	1365.4
318.68 K, 100 kPa	–	1205.5
